These results are taken from paper PMC2664101 (Journal of medicinal chemistry, 2009).

The subject of series [1] is hypoxia-ischemia induced cerebral palsy. Particulars: cited from earlier work; for fetal brain NOS activity in vivo / cardiovascular effects / distribution to fetal brain / eNOS regulated blood pressure / toxicity: rabbit; for hypoxia-ischemia induced deaths / number of newborn kits exhibiting symptoms of cerebral palsy: rabbit model for cerebral palsy.
The next series addresses rat nNOS (Rattus norvegicus, UniProt P29476). Particulars: comparing 27 with 16.
Where [2] appears, read: following maternal administration.

Read-outs that look alike come from different tables or passages of the source.

On to `Cc1cc(N)nc(C[C@H]2CNC[C@H]2NCCNCCc2cccc(F)c2)c1` [compound 26], for which, in series [1] (setting [2]), the “fetal brain NOS activity in vivo” value is “inhibit fetal brain NOS activity in vivo”. In addition, in series [1], the hypoxia-ischemia induced deaths result was “prevent hypoxia-ischemia induced deaths” and the “number of newborn kits exhibiting symptoms of cerebral palsy” value is recorded as “reduce the number of newborn kits exhibiting symptoms of cerebral palsy”. In series [1] (in vivo), the cardiovascular effects result is on record as “without cardiovascular effects”, the “distribution to fetal brain” value was “distribute to fetal brain”, the “eNOS regulated blood pressure” value is on record as “without affecting the eNOS regulated blood pressure” and the toxicity result was “non-toxic”.
Regarding `Cc1cc(N)nc(C[C@H]2CNC[C@H]2NCCNCc2ccc(Cl)cc2)c1.Cl` [compound 16], in series [1] (setting [2]), the “fetal brain NOS activity in vivo” value was “inhibit fetal brain NOS activity in vivo” and the toxicity result is listed as “non-toxic”. Moreover, in series [1], the hypoxia-ischemia induced deaths result is on record as “prevent hypoxia-ischemia induced deaths” and the “number of newborn kits exhibiting symptoms of cerebral palsy” value is recorded as “reduce the number of newborn kits exhibiting symptoms of cerebral palsy”. For the same compound, in series [1] (in vivo), the cardiovascular effects result is recorded as “without cardiovascular effects”, the “distribution to fetal brain” value was “distribute to fetal brain” and the “eNOS regulated blood pressure” value is given as “without affecting the eNOS regulated blood pressure”.
For the compound `Cc1cc(C[C@H]2CNC[C@H]2NCCNCc2ccc(Cl)cc2)cc(N)n1.Cl` (racemic) [compound 27, N^1-{(±)-4′-[(2”-amino-6”-methylpyridin-4”-yl)methyl]pyrrolidin-3′-yl}-N^2-(4′-chlorobenzyl)ethane-1,2-diamine tetrahydrochloride], at rat nNOS, the “drop in nNOS inhibitory potency” value is “more than 200 fold”.
